Experimental data reported in patent US20060128614A1, “Antimicrobial peptides with reduced hemolysis and methods of their use” (priority 2002, published 2006).
In brackets after ≈: the same amount, converted by molar mass. Where two headings read alike, the source gives them in different places. Non-standard residues stand in square brackets, D forms with d. Residues, ends and D or L forms follow the SMILES beside them. Bip = N[C@@H](Cc1ccc(-c2ccccc2)cc1)C(=O)O; 1Nal = N[C@@H](Cc1cccc2ccccc12)C(=O)O; 2Nal = N[C@@H](Cc1ccc2ccccc2c1)C(=O)O

Tests used:
S. aureus = assay type: cell-based, Staphylococcus aureus
Protocol: (§1) The in vitro antimicrobial activities of antimicrobial agents were tested using standard NCCLS bacterial and fungi inhibition assays or minimum inhibition concentration (MIC) tests. The MIC value is the lowest concentration of peptide at which the visible growth of test organisms was inhibited and reduced. Overnight cultures of the test organisms were diluted to produce an inoculum containing approximately […] in Meuller-Hinton broth (MHB). From the peptide stock solution, serial dilutions of the peptides into […] were prepared and all wells of a 96-well microtiter plate were subsequently inoculated with the diluted culture of the test organisms. After 18 hours of incubation at 37°, the results were assayed for turbidity as an indicator of cell growth. MIC values for the peptides are shown in Table 3 and Table 4 and FIGS. 1(A), 1(B), 1 (C) and 1 (D) show survival rates for Pac-625 and Pac-626.

[1] = test system: human red blood cells (RBC); assay type: cell-based
Protocol: Pac-401, Pac-403, Pac-625 and Pac-626 were tested for hemolysis against human red blood cells (RBC). The RBCs with EDTA were rinsed 3 times with PBS (800 g, 10 min) and re-suspended in PBS. The RBCs were diluted into 10% with phosphate-buffered saline and placed […] into each eppendorf. The peptides dissolved in PBS were then added to 50 μl of 10% solution of RBCs and incubated for an hour at 37° C. (final RBC concentration, 5% v/v). The samples were centrifuged at 800 g for 10 min […]. Various concentrations of peptides were incubated with pretreated RBC and the percentage of hemolysis determined.

E. coli = assay type: cell-based, Escherichia coli
Protocol: as §1

Question: `CC[C@H](C)[C@H](NC(=O)[C@H](Cc1ccc2ccccc2c1)NC(=O)[C@H](CCCCN)NC(C)=O)C(=O)N[C@@H](CCCCN)C(=O)N[C@@H](Cc1ccc2ccccc2c1)C(=O)N[C@@H](CCCNC(=N)N)C(N)=O` [Pac-403 L, K (2-Nal) I K (2-Nal) R] (Ac-K[2Nal]IK[2Nal]R-NH2) was tested. Which “MIC against S. aureus” value (S. aureus; 18 h) did it give?
Answer: 16 µg/mL (≈ 16.3 µM)

Question: What about the “% lysis @ 5 μg/ml” value [1] of the same compound?
Answer: 0.74%

Question: And the “% lysis @ 50 μg/ml” value [1]?
Answer: 7.2%

Question: And the “% lysis @ 500 μg/ml” value [1]?
Answer: 15%

Question: And the “MIC against E. coli” value (E. coli; 18 h)?
Answer: 24 µg/mL (≈ 24.5 µM)

Question: For `CC[C@H](C)[C@H](NC(=O)[C@H](Cc1ccc2ccccc2c1)NC(=O)[C@H](CCCCN)NC(=O)[C@@H](NC(=O)[C@H](Cc1ccc2ccccc2c1)NC(=O)[C@H](CCCCN)NC(=O)[C@@H](NC(=O)[C@H](Cc1ccc2ccccc2c1)NC(=O)[C@H](CCCCN)NC(C)=O)[C@@H](C)CC)[C@@H](C)CC)C(N)=O` [Pac-621, Ac-K(2-Nal) IK(2-Nal) IK(2-Nal) I-NH2] (Ac-K[2Nal]IK[2Nal]IK[2Nal]I-NH2), which “MIC against S. aureus” value (S. aureus) is on record?
Answer: 16 µg/mL (≈ 11.6 µM)

Question: And the “MIC against E. coli” value (E. coli)?
Answer: 8 µg/mL (≈ 5.82 µM)

Question: `CC[C@H](C)[C@@H]1NC(=O)[C@H](Cc2ccc3ccccc3c2)NC(=O)[C@H](CCCNC(=N)N)NC(=O)[C@H](C(C)C)NC(=O)[C@H](Cc2ccc3ccccc3c2)NC(=O)[C@H](CCCNC(=N)N)NC(=O)[C@H](CCCNC(=N)N)NC(=O)[C@H](Cc2ccc3ccccc3c2)NC(=O)[C@H](CCCCN)NC1=O` [Pac-625 C, K (2-Nal) R R (2-Nal) V R (2-Nal) I] (cyclo(K[2Nal]RR[2Nal]VR[2Nal]I); ring closure inferred) was tested. Which “MIC against S. aureus” value (S. aureus; 18 h) did it give?
Answer: 64 µg/mL (≈ 45.7 µM)

Question: And the “MIC against E. coli” value (E. coli; 18 h)?
Answer: 64 µg/mL (≈ 45.7 µM)

Question: For `CC[C@H](C)[C@H](NC(=O)[C@H](Cc1cccc2ccccc12)NC(=O)[C@H](CCCNC(=N)N)NC(=O)[C@@H](NC(=O)[C@H](Cc1cccc2ccccc12)NC(=O)[C@H](CCCNC(=N)N)NC(=O)[C@H](CCCNC(=N)N)NC(=O)[C@H](Cc1cccc2ccccc12)NC(=O)[C@H](CCCCN)NC(C)=O)C(C)C)C(N)=O` [Pac-627 L, K (1-Nal) R R (1-Nal) V R (1-Nal) I] (Ac-K[1Nal]RR[1Nal]VR[1Nal]I-NH2), which “MIC against S. aureus” value (S. aureus) is on record?
Answer: 4 µg/mL (≈ 2.74 µM)

Question: What about the “MIC against S. aureus” value (S. aureus; 18 h) of the same compound?
Answer: 4 µg/mL (≈ 2.74 µM)

Question: And the “MIC against E. coli” value (E. coli)?
Answer: 4 µg/mL (≈ 2.74 µM)

Question: What about the “MIC against E. coli” value (E. coli; 18 h) of the same compound?
Answer: 4 µg/mL (≈ 2.74 µM)

Question: For `CC[C@H](C)[C@@H]1NC(=O)[C@H](Cc2ccc3ccccc3c2)NC(=O)[C@H](CCCCN)NC(=O)[C@H](CCCNC(=N)N)NC(=O)[C@H](Cc2ccc3ccccc3c2)NC(=O)[C@H](CCCCN)NC1=O` [Pac-403 C, K (2-Nal) I K (2-Nal) R] (cyclo(K[2Nal]IK[2Nal]R); ring closure inferred), which “MIC against S. aureus” value (S. aureus; 18 h) is on record?
Answer: >64 µg/mL

Question: And the “MIC against E. coli” value (E. coli; 18 h)?
Answer: >64 µg/mL

Question: For `CC[C@H](C)[C@@H]1NC(=O)[C@H](Cc2cccc3ccccc23)NC(=O)[C@H](CCCNC(=N)N)NC(=O)[C@H](C(C)C)NC(=O)[C@H](Cc2cccc3ccccc23)NC(=O)[C@H](CCCNC(=N)N)NC(=O)[C@H](CCCNC(=N)N)NC(=O)[C@H](Cc2cccc3ccccc23)NC(=O)[C@H](CCCCN)NC1=O` [Pac-627 C, K (1-Nal) R R (1-Nal) V R (1-Nal) I] (cyclo(K[1Nal]RR[1Nal]VR[1Nal]I); ring closure inferred), which “MIC against S. aureus” value (S. aureus; 18 h) is on record?
Answer: 64 µg/mL (≈ 45.7 µM)

Question: And the “MIC against E. coli” value (E. coli; 18 h)?
Answer: 64 µg/mL (≈ 45.7 µM)

Question: How did the “MIC against S. aureus” value (S. aureus; 18 h) turn out when `CC(C)[C@@H]1NC(=O)[C@H](Cc2ccc3ccccc3c2)NC(=O)[C@H](CCCNC(=N)N)NC(=O)[C@H](CCCNC(=N)N)NC(=O)[C@H](Cc2ccc3ccccc3c2)NC(=O)[C@H](CCCCN)NC1=O` [Pac-402 C, K (2-Nal) R R (2-Nal) V] (cyclo(K[2Nal]RR[2Nal]V); ring closure inferred) was run?
Answer: >64 µg/mL

Question: And the “MIC against E. coli” value (E. coli; 18 h)?
Answer: >64 µg/mL

Question: How did the “MIC against S. aureus” value (S. aureus; 18 h) turn out when `CC[C@H](C)[C@@H]1NC(=O)[C@H](Cc2ccc3ccccc3c2)NC(=O)[C@H](CCCNC(=N)N)NC(=O)[C@H](CCCNC(=N)N)NC(=O)[C@H](Cc2ccc3ccccc3c2)NC(=O)[C@H](CCCCN)NC1=O` [Pac-401 C, K (2-Nal) R R (2-Nal) I] (cyclo(K[2Nal]RR[2Nal]I); ring closure inferred) was run?
Answer: >64 µg/mL

Question: What about the “MIC against E. coli” value (E. coli; 18 h) of the same compound?
Answer: >64 µg/mL

Question: `CC[C@H](C)[C@@H]1NC(=O)[C@H](CCCCN)NC(=O)[C@H](Cc2ccc3ccccc3c2)NC(=O)[C@H](CCCNC(=N)N)NC(=O)[C@H](CCCNC(=N)N)NC(=O)[C@H](Cc2ccc3ccccc3c2)NC(=O)[C@H](C(C)C)NC(=O)[C@H](CCCNC(=N)N)NC(=O)[C@H](Cc2ccc3ccccc3c2)NC1=O` [Pac-626 C, I (2-Nal) R V (2-Nal) R R (2-Nal) K] (cyclo(I[2Nal]RV[2Nal]RR[2Nal]K); ring closure inferred) was tested. Which “MIC against S. aureus” value (S. aureus; 18 h) did it give?
Answer: 64 µg/mL (≈ 45.7 µM)

Question: What about the “MIC against E. coli” value (E. coli; 18 h) of the same compound?
Answer: 64 µg/mL (≈ 45.7 µM)

Question: With `CC[C@H](C)[C@H](NC(=O)[C@H](Cc1ccc2ccccc2c1)NC(=O)[C@H](CCCNC(=N)N)NC(=O)[C@H](CCCNC(=N)N)NC(=O)[C@H](Cc1ccc2ccccc2c1)NC(=O)[C@H](CCCCN)NC(C)=O)C(N)=O` [Pac-401 L, K (2-Nal) R R (2-Nal) I] (Ac-K[2Nal]RR[2Nal]I-NH2) as the compound, how does the “MIC against S. aureus” value (S. aureus; 18 h) read?
Answer: 8 µg/mL (≈ 7.94 µM)

Question: What about the “% lysis @ 5 μg/ml” value [1] of the same compound?
Answer: 0.85%

Question: What about the “% lysis @ 50 μg/ml” value [1] of the same compound?
Answer: 6.8%

Question: And the “% lysis @ 500 μg/ml” value [1]?
Answer: 14%

Question: And the “MIC against E. coli” value (E. coli; 18 h)?
Answer: 16 µg/mL (≈ 15.9 µM)

Question: Which “MIC against S. aureus” value (S. aureus) does the source give for `CC[C@H](C)[C@H](NC(=O)[C@H](Cc1ccc2ccccc2c1)NC(=O)[C@H](CCCNC(=N)N)NC(=O)[C@@H](NC(=O)[C@H](Cc1ccc2ccccc2c1)NC(=O)[C@H](CCCNC(=N)N)NC(=O)[C@@H](NC(=O)[C@H](Cc1ccc2ccccc2c1)NC(=O)[C@H](CCCCN)NC(C)=O)[C@@H](C)CC)C(C)C)C(N)=O` [Pac-629, Ac-K(2-Nal) IR(2-Nal) VR(2-Nal) I-NH2] (Ac-K[2Nal]IR[2Nal]VR[2Nal]I-NH2) here?
Answer: 4 µg/mL (≈ 2.82 µM)

Question: And the “MIC against E. coli” value (E. coli)?
Answer: 8 µg/mL (≈ 5.65 µM)

Question: Which “MIC against S. aureus” value (S. aureus; 18 h) does the source give for `CC[C@H](C)[C@@H]1NC(=O)[C@H](Cc2ccc(-c3ccccc3)cc2)NC(=O)[C@H](CCCNC(=N)N)NC(=O)[C@H](C(C)C)NC(=O)[C@H](Cc2ccc(-c3ccccc3)cc2)NC(=O)[C@H](CCCNC(=N)N)NC(=O)[C@H](CCCNC(=N)N)NC(=O)[C@H](Cc2ccc(-c3ccccc3)cc2)NC(=O)[C@H](CCCCN)NC1=O` [Pac-628 C, K (Bip) R R (Bip) V R (Bip) I] (cyclo(K[Bip]RR[Bip]VR[Bip]I); ring closure inferred) here?
Answer: 64 µg/mL (≈ 43.3 µM)

Question: And the “MIC against E. coli” value (E. coli; 18 h)?
Answer: 64 µg/mL (≈ 43.3 µM)
